Laboratory results as given in paper PMC11475408, “All‐Inorganic Polyoxometalates Act as Superchaotropic Membrane Carriers” (Advanced Materials (Deerfield Beach, Fla.), 2023).

Assays:
[1] = CF transport assay in anionic vesicles; assay type: biochemical; conditions: heptaArg cargo; for heptaArg Ymax, anionic vesicles / EC50: CF assay, pH 7.4; for heptaArg Ymax, anionic vesicles: DMPE/DPPG/CHOL 1/2/1 (anionic), 13 µM phospholipids, 10 mM Tris, 140 mM NaCl; for EC50 / heptaArg E, anionic vesicles: DMPE/DPPG/CHOL (anionic); for heptaArg E, anionic vesicles: f = 20.6
Protocol: To better mimic biological membranes, which contain negatively charged components and cholesterol, equivalent transport experiments were performed in anionic liposomes^[ [19], [20] ^] with the prototypal POM carriers, [PVW11]^4‒ and [SiMoW11]^4‒ . […] This encouraged us to transfer the experiments to CHO‐K1 (Chinese hamster ovary) cells, after we had confirmed sufficient stability of the most promising POM carriers, [PVW11]^4‒ and [SiMoW11]^4‒ , in the cellular nutrient mixture (F‐12 Ham's medium, Figures S26–S28C, Supporting Information).
Anionic vesicles were prepared analogously except for the lipid composition, DMPE/DPPG/CHOL (4.4/10.4/2.6 mg, 1/2/1 molar ratio, DMPE: 1,2‐dimyristoyl‐sn‐glycero‐3‐phosphoethanolamine; DPPG: 1,2‐dipalmitoyl‐sn‐glycero‐3‐phospho‐(1´‐rac‐glycerol); CHOL: cholesterol) in a 1:1 mixture of CHCl3 and MeOH (1 mL), the hydration (60 min) and extrusion were performed at 55 °C, and the employed buffers were 100 mM CF, 10 mM Tris, pH 7.4 and 10 mM Tris, 140 mM NaCl, pH 7.4 for rehydration and elution, respectively.
Vesicles stock solutions (5–10 µL) were diluted with the corresponding buffer in a disposable plastic cuvette and gently stirred (total volume 2000 µL, final lipid concentration 13 µM). Carboxyfluorescein fluorescence was monitored at λ em = 517 nm (λ ex = 492 nm) as a function of time after addition of POMs at 60 s, analyte at 120 s and Triton X‐100 (24 µL 1.2% wt/vol) at 600 s to lyse the vesicles, for calibration. Fluorescence intensities were normalized to fractional emission as (1) It=It−I0/I∞−I0 where I 0 = I t before POM addition and […] after lysis. For Hill analysis, I t before lysis was defined as transport activity, Y, and plotted against POM concentration, c, and fitted to the Hill Equation (2), to afford the activity in absence of POM, Y 0, the maximal activity, Y max, the concentration needed to achieve 50% of maximal activity, EC 50, and the Hill coefficient, n (2) Y=Y0+Ymax−Y0/1+EC50/c^n […]
Figure S8. Heptaarginine transport through anionic vesicles[22-23][24] (DMPE/DPPG/CHOL, 1/2/1 molar ratio) facilitated by [PVW11]4‒ (a) and [SiMoW11]4‒ (c). Transport activity as function of [PVW11]4‒ (b) and [SiMoW11]4‒ (d) concentration, solid lines correspond to the resulting fit with the Hill equation.
Table S5. Membrane transport parameters of active POMs towards different analytes and different lipid composition. […]
a) 13 µM phospholipids. b) 10 µM cargo. c) Maximal activity; ±2% error (SD). d) Effective concentration to reach 50% activity of Ymax; 5 % error (SD). e) Activation efficiency E = Ymax (pEC50/f), were pEC50 is the negative logarithm of the EC50, and f a scaling factor set to 20.6 to allocate E between 0

[2] = tested on: protamine; test: ITC, POM into protamine; assay type: binding; conditions: 10 mM Tris, pH 7.4, value is Ka divided by 10^7
Protocol: All experiments were performed with a VP‐ITC MicroCalorimeter from MicroCal, Int,. at atmospheric pressure and 298.15 K. Solutions were degassed and thermostatic prior to the titration experiments in a ThermoVac accessory. A constant volume of POM ([PVW11]^4‒ or [SiMoW11]^4‒) (10 µL per injection) was injected into the oligopeptide solution (heptaArg, protamine, polyArg or heptaLys) in 10 mM Tris, pH 7.4 to determine the apparent binding affinity of [PVW11]^4‒ and [SiMoW11]^4‒ with the oligopeptides. Dilution heats were determined by titration of the POM into buffer and subtracted from the reaction heat. The neat reaction heat was fitted with Origin 7.0 software by using the “one‐set‐of‐sites” model to obtain the complex stability constant (K a) and molar reaction enthalpy (∆H°). The free energy (∆G°) and entropy changes (∆S°) were obtained according to the relation: ∆G° = −RTlnK a = ∆H°−T∆S°.
4. Supramolecular interactions
Figure S10. Microcalorimetric titrations in 10 mM Tris, pH 7.4: Raw ITC data (top) for the sequential injections of POM solution into an oligoarginine solution, and apparent reaction heats (bottom) obtained from the integration of the calorimetric traces. […]
values and ± 0.5 kcal mol‒1 for ΔH and TΔS (duplicate measurements). Note that none of these interactions lead to any precipitation or aggregates, confirmed by the absence of any detectable signal by DLS. […]

K4[α‐Si^IVMo^VIW^VI 11O40]·24H2O [[SiMoW11]^4‒]
heptaArg Ymax, anionic vesicles [1]: 61% | EC50 [1]: 60 µM | heptaArg E, anionic vesicles [1]: 3.6 | Ka/ 107, protamine [2]: 1.7 M‒1

K4[α‐P^VV^VW^VI 11O40]·4H2O [[PVW11]^4‒]
heptaArg Ymax, anionic vesicles [1]: 45% | EC50 [1]: 50 µM | heptaArg E, anionic vesicles [1]: 2.8 | Ka/ 107, protamine [2]: 25 M‒1
